Measurements taken from patent US8722897B2, “Metal complexes of thiourea and derivatives as metal delivering anti-cancer and anti-inflammatory agents” (priority 2010, dated 2014).

Tests used:
[1] = target: T1, NADPH-reduced TrxR1 (Rattus norvegicus, UniProt O89049); assay: BIAM labeling of cysteine and selenocysteine residues of TrxR1; type: biochemical; settings: TrxR 0.1 μM, compound 4 μM, pH 8.5 and pH 6.5
T1 sequence (O89049 1-499): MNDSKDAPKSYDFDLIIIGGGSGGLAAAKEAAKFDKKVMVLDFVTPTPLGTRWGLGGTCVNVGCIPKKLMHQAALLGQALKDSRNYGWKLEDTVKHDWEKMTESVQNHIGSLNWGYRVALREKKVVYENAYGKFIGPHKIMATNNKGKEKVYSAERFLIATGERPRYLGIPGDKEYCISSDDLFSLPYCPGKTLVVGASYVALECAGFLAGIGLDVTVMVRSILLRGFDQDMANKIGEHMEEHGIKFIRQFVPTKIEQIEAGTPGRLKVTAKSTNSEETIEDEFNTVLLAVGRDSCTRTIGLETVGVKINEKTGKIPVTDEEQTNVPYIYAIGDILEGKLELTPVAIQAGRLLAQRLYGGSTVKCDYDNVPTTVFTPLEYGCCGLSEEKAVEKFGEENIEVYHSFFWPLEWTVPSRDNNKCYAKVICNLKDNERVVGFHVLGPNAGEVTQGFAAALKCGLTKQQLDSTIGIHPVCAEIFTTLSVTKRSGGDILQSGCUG
Source text: The reduced TrxR has free —SH (Cys496) and —SeH (Sec497) groups at the C-terminal active site, making it vulnerable to be attacked by Au(I). ^20, 22, 23 These redox active sites can be probed by biotinylated iodoacetamide (BIAM), which alkylates the free —SH and —SeH groups; and the resulting adduct can be detected by western blot experiment using streptavidin-linked horseradish peroxidase (FIG. 10). ^26, 27 It has been shown that these residues can be selectively alkylated by BIAM by adjusting the pH. At pH 8.5, both —SH and —SeH are alkylated. At pH 6.5, only the —SeH is alkylated owing to the low pKa value for selenocysteine, and thus a weaker streptavidin signal was obtained in which case. […] It is highly likely that the formation of the tight enzyme-inhibitor complex (EI*) involves covalent modification of the redox active selenocysteine and cysteine residue via the Au(I) complex. ^28
NADPH-reduced TrxR1 (0.1 μM) and 1 (4 μM) were incubated in reaction buffer (100 mM phosphate buffer, pH 7.4, 1 mM EDTA) at room temperature for 1 h. […] The separated proteins were transferred to nitrocellulose membrane and the BIAM labeled proteins were detected with horseradish peroxidase conjugated streptavidin and enhanced chemiluminescence detection.

[2] = Cytotoxicity assay (MTT), HeLa; settings: human, HeLa cells
Description: Cells were seeded in a 96-well flat-bottomed microplate at 20,000 cells/well in 150 μL of growth medium solution. The compounds were dissolved in dimethyl sulfoxide. Serial dilution of each complex was added to each well with final concentration of DMSO≦1%. […] After incubation, 10 μL MTT reagent (5 mg/mL) was added to each well. The microplate was re-incubated at 37° C. in 5% CO2 for 4 h. Solubilization solution (10% SDS in 0.01 M HCl) (100 μL) was added to each well. The microplate was left in an incubator for 24 h. Absorbances at 550 nm were measured by a microplate reader.

[3] = Cytotoxicity assay (MTT), HepG2; settings: human, HepG2 cells
Description: Cells were seeded in a 96-well flat-bottomed microplate at 20,000 cells/well in 150 μL of growth medium solution. The compounds were dissolved in dimethyl sulfoxide. Serial dilution of each complex was added to each well with final concentration of DMSO≦1%. The microplate was incubated at 37° C., 5% CO2, 95% air in a humidified incubator for 72 h. After incubation, 10 μL MTT reagent (5 mg/mL) was added to each well. The microplate was re-incubated at 37° C. in 5% CO2 for 4 h. Solubilization solution (10% SDS in 0.01 M HCl) (100 μL) was added to each well. The microplate was left in an incubator for 24 h. Absorbances at 550 nm were measured by a microplate reader.

[4] = target: T2, Recombinant rat TrxR1 (Rattus norvegicus, UniProt O89049); assay: biochemical; settings: preformed EI*
T2 construct: purchased ICMO Corp, Sweden (so in the source)
T2 sequence (O89049 1-499): T1 sequence (O89049 1-499)
Description: 1 nM Recombinant rat TrxR1 (ICMO Corp, Sweden) was reduced with 0.2 mM NADPH and then incubated with 0.3-10 nM of 1 for 30 min in a buffer of 100 mM phosphate buffer, pH 7.4 and 1 mM EDTA. The residual activities were measured using 0.75, 1.5 or 3 mM DTNB (FIG. 7A). The data were fit into Eq. 1 using GraphPad Prism 3.0 software. vs/vo=(Et−Ki−It+((It+Ki′−Et)^2+(4KiEt))^1/2)/(2Et) (1) Eq. 1 describes the rate law of tight-binding inhibition in which case the inhibitor concentration is substantially depleted owing to formation of enzyme-inhibitor complex. In this equation, vo is the observed velocity in the absence of inhibitor, vs is the steady-state velocity in the presence of inhibitor, Et is the total enzyme concentration, and I is the inhibitor concentration. […] Ki=Ki*(1+S/Km) (2) Determination of Ki by Progress Curve Analysis ^35, 36 (FIG. 8)

In the case of `COc1ccc(N2CCN(c3ccc(OC)cc3)C2=[S+][Au-][S+]=C2N(c3ccc(OC)cc3)CCN2c2ccc(OC)cc2)cc1` [complex 1, [Au(TU)2]Cl], the “BIAM labeling of TrxR” value [1] is reported as “inhibited”, the IC50 at 72 h [2] is reported as 14.6 ± 0.7 µM and the IC50 at 72 h [3] is reported as 17.4 ± 1 µM. The Ki ([4]; apparent inhibitory constant (Ki), 1 nM TrxR1, 30 min preincubation, steady state rate law) was 0.67 nM and the Ki ([4]; inhibitory constant Ki*, corrected for substrate competition, Km 0.2 mM) was 0.036 nM.
